Laboratory results: patent US20160058743A1, “METHODS FOR TREATING SENSORIMOTOR IMPAIRMENTS ASSOCIATED WITH CERTAIN TYPES OF STROKE USING AMINOPYRIDINES” (ACORDA THERAPEUTICS, INC., priority 2013, published 2016)
Several values for one entry are separate records, joined by “and”; a condition that tells them apart may be missing. Equal entries are not always repeated.

Tested on: rats with middle cerebral artery occlusion (MCAO)
Experiment: Cylinder test (overall asymmetry, total movement) after MCAO
Format: in vivo, Sprague Dawley rats
Set-up: Cylinder Test (Total Movement) / Cylinder Test (Total Movement), Mean: unit not given here
Conditions: for Cylinder Test (Total Movement) / Cylinder Test Score (Overall Asymmetry (%)): individual animals and group Mean; for Cylinder Test (Total Movement), Mean: N 15
Source text: In particular, the MCAO model in Sprague Dawley rats that was utilized in the experiments presented below mimics the conditions in human ischemic stroke. In this model, focal cerebral infarcts were made by permanent occlusion of the proximal right middle cerebral artery (MCA) using a modification of the method of Tamura et al. (No To […] 1986; 38:747-51). Briefly, the temporalis muscle was bisected and reflected through an incision made midway between the eye and the ear canal. The proximal MCA was exposed through a subtemporal craniectomy without removing the zygomatic arch and without transecting the facial nerve. […] In this experiment, Sprague Dawley rats were anesthetized, subjected to a surgery resulting in middle cerebral artery occlusion (MCAO), treated with and without 4-aminopyridine and behavioral assessments were performed as described below. Treatment was initiated at 4 weeks after stroke. Dosing and Treatment: Rats were treated in accordance with the dosing schedule shown in Tables 2A, 2B, 3 and FIG. 2, with each Phase being a two week period of time. A solution of 4-AP was used in this experiment. […] Vehicle control treatment was WFI delivered at 2 mL/kg by gastric gavage. […] Starting on day 30 after MCAO (Day 30, start of phase 1), the animals received gavage dosing of solutions (2 mL/kg) approximately 12 hours apart, for a total of five doses. The same schedule was repeated with different treatment on Day 44 and Day 58 for phase 2 and 3 of the study, respectively. Animals were not treated during the 10 days between phases (washout period). Treatment groups: Dosing was started 4 weeks after MCAO surgery. During these 4 weeks, weekly behavioral assessments, as defined below, were performed. […] Animals were given the first dose and behavioral assessments were performed starting 60 minutes after dosing. Animals then received the second dose that day at the appropriate time and b.i.d (preferably every 12 hours) thereafter for 2 more days (3 total days of dosing, 5 total doses). One hour after the 5th dose, animals were subjected to behavioral assessments as defined below. Following the final behavioral assessment, drug was withdrawn for 10 or 11 days, behavior was re-assessed, and then animals were re-challenged with a cross-over treatment (Phase 2 of Table 2B) as described in Tables 2A, 2B and 3, followed by the same behavioral testing and dosing regimen. This cross-over was repeated one more time as well (Phase 3 of Table 2B) (see FIG. 2). Cylinder Test: Evaluation was performed at Day -1 (pre-operation), Day 7, Day 21, Day 30, Day 32, Day 44, Day 46, Day 58, Day 60. This test assessed limb use asymmetry. Rats were placed in a transparent cylinder (20 cm in diameter and 30 cm in height) for 3-6 minutes. A mirror was placed behind the cylinder to determine forelimb movements when animal was turned away from the camera. […] Simultaneous use of both left and right forelimbs while contacting the wall during a full rear was also scored. A total number of 20 forelimb placings were counted during a trial. Data was expressed in terms of percent use of the non-impaired and or impaired forelimb relative to the total number of limb use observations for wall movements.

With `Nc1ccncc1` [4-AP, 4-aminopyridine] the “Effect on body symmetry and coordination (cylinder test)” value (Example 2, 0.63 or 2 mg/kg b.i.d. p.o., started 4 weeks post MCAO, dose-dependent, reversible) was “effective to improve body symmetry and coordination”, the “Cylinder Test (Total Movement)” value (Group 1, D 7) was 131.00 and 130.00 and 77.00 and 57.00 (2×) and 139.00 and 35.00 and 15.00 and 32.00 and 14.00 and 63.00 and the “Cylinder Test (Total Movement)” value (Group 1, D 7, mean) was 58.07. The “Cylinder Test (Total Movement)” value (Group 1, D 21) was 51.00 and 98.00 and 31.00 and 67.00 and 172.00 and 28.00 and 70.00 and 8.00 and 52.00 and 22.00 and 13.00, the “Cylinder Test (Total Movement)” value (Group 1, D 21, mean) was 45.67 and the “Cylinder Test (Total Movement)” value (Group 1, D 30) was 0.00 (3×) and 75.00 and 2.00 and 10.00 (2×) and 6.00 and 13.00 and 12.00 and 4.00. For the same compound, the “Cylinder Test (Total Movement)” value (Group 1, D 32) was 11.00 and 54.00 and 22.00 and 39.00 and 10.00 and 8.00 and 14.00 and 15.00 and 0.00 (2×) and 38.00, the “Cylinder Test (Total Movement)” value (Group 1, D 44) was 28.00 and 93.00 and 48.00 and 57.00 and 47.00 and 9.00 and 123.00 and 11.00 and 5.00 and 66.00 and the “Cylinder Test (Total Movement)” value (Group 1, D 46) was 11.00 and 47.00 and 43.00 and 48.00 and 46.00 and 12.00 and 63.00 and 4.00 and 0.00 and 13.00. For the same compound, the “Cylinder Test (Total Movement)” value (Group 1, D 58) was 14.00 and 137.00 and 18.00 and 81.00 and 53.00 and 16.00 and 74.00 and 0.00 and 11.00 and 26.00, the “Cylinder Test (Total Movement)” value (Group 1, D 58, mean) was 36.47 and the “Cylinder Test (Total Movement)” value (Group 1, D 60) was 14.00 and 81.00 and 33.00 and 44.00 and 28.00 and 9.00 and 85.00 and 0.00 and 3.00 and 6.00. The “Cylinder Test (Total Movement)” value (Group 1, D 60, mean) was 27.40, the “Cylinder Test (Total Movement)” value (Group 1, D −1) was 64.00 and 152.00 and 81.00 and 52.00 and 100.00 and 53.00 and 47.00 and 14.00 and 31.00 and 23.00 and 49.00 and the “Cylinder Test (Total Movement)” value (Group 1, D −1, mean) was 63.07. For the same compound, the “Cylinder Test Score (Overall Asymmetry (%))” value (Group 2, D 7) was 55.47% and 28.85% and 25.00% and 51.56% and 50.00% and 58.33% and 42.36% and 28.57% and 43.14% and 24.32% and 14.29%, the “Cylinder Test Score (Overall Asymmetry (%))” value (Group 2, D 7, mean) was 38.14% and the “Cylinder Test Score (Overall Asymmetry (%))” value (Group 2, D 21) was 56.25% and −23.17% and 66.67% (2×) and 49.06% and 46.43% and 25.32% and 47.83% and 22.22% and 17.86% and −25.00%. For the same compound, the “Cylinder Test Score (Overall Asymmetry (%))” value (Group 2, D 21, mean) was 27.16%, the “Cylinder Test Score (Overall Asymmetry (%))” value (Group 2, D 30) was 51.72% and 0.00% and 4.17% and 56.64% and 27.59% and 75.00% and 20.99% and 27.50% and 16.67% and 20.00% and the “Cylinder Test Score (Overall Asymmetry (%))” value (Group 2, D 32) was 63.29% and 18.18% and 33.33% and 54.78% and 22.73% and 62.50% and 16.00% and 20.00% and 3.85% and 27.66% and −33.33%. For the same compound, the “Cylinder Test Score (Overall Asymmetry (%))” value (Group 2, D 44) was 58.33% and 14.04% and 38.96% and 52.53% and 11.54% and 54.93% and 7.14% and 18.18% and −27.08% and 17.65% and −20.00%, the “Cylinder Test Score (Overall Asymmetry (%))” value (Group 2, D 44, mean) was 14.61% and the “Cylinder Test Score (Overall Asymmetry (%))” value (Group 2, D 46) was 28.57% and 34.85% and 31.40% and 19.05% and 29.33% and 40.35% and 46.15% and 16.95% and 42.86% and 2.86%. The “Cylinder Test Score (Overall Asymmetry (%))” value (Group 2, D 46, mean) was 24.91%, the “Cylinder Test Score (Overall Asymmetry (%))” value (Group 2, D 58) was 29.17% and 50.00% and 66.67% and 54.76% and 30.00% and 88.00% and −7.69% and −16.67% and 62.50% and the “Cylinder Test Score (Overall Asymmetry (%))” value (Group 2, D 60) was 64.00% and 20.00% and 14.29% and 62.50% and 10.00% and 76.47% and 13.95% and 0.00% (2×) and −100.00%. The “Cylinder Test Score (Overall Asymmetry (%))” value (Group 2, D −1) was −15.58% and −1.96% and −24.39% and 2.38% and 0.00% and 1.65% and −2.20% and −7.58% and 21.05% and 8.45% and −2.70% and −5.66%, the “Cylinder Test Score (Overall Asymmetry (%))” value (Group 2, D −1, mean) was −4.05% and the “Cylinder Test (Total Movement), Mean” value (Group 3, D 44 after MCAO) was 19.13. The “Cylinder Test (Total Movement), Mean” value (Group 3, D 46 after MCAO) was 18.73 and the “Cylinder Test (Total Movement), Mean” value (Group 3, D 58 after MCAO) was 32.33.
